Patent publication US20260069656A1, “Nutritive Polypeptides and Formulations Thereof, and Methods of Production and Use Thereof” (Axcella Health Inc., priority 2013, published 2026)

Columns and labels:
GLP-2 = assay: Total GLP-2 ELISA, plasma GLP-2 in healthy fasted rats; assay type: in vivo, rat
Protocol: Animals were treated and acutely dosed with test articles as part of pharmacokinetic rodent experiments according to methods described herein. In this experiment, two test articles were analyzed, vehicle and a nutritive formulation of SEQID-240, dosed at 1.54 g/kg.
Total GLP-2 was measured with Millipore Total GLP-2 ELISA Kit (Millipore, EZGLP2-37K). The ELISA kit was equilibrated to room temperature for a minimum of 30 minutes prior to running the assay. The kit GLP-2 Standard, Quality Control 1 and Quality Control 2 were reconstituted with 500 μL MilliQ water, inverted 5 times and incubated at room temperature for 5 minutes, then gently vortexed to mix. The standard curve was prepared by diluting the GLP-2 Standard serially 1:1 in kit Assay Buffer to generate an eight point standard curve including 0 ng/mL GLP-2. Plasma samples were thawed on ice and centrifuged for 10 minutes at approximately 1109× rcf to pellet insoluble material. Fasted plasma matrix from untreated, fasted rat was prepared for running the standard and quality controls in duplicate at 20% (2×).
1× Wash Buffer was prepared in a clean 500 mL glass bottle by combining 50 mL 10× Wash Buffer with 450 mL MilliQ water. Strips were prepared by washing 3 times with 300 μL 1× Wash Buffer applied with a 30-300 μL 8-channel pipette. Between washes the wash buffer was decanted into a waste receptacle and the plate tapped sharply on a stack of paper towels to remove remaining wash buffer.
Following the first wash, 90 μL of Assay Buffer was added to sample wells, and 50 μL of 20% matrix in Assay Buffer was added to all standard and quality control wells. 10 μL of sample was added to each sample well and 50 μL of standard and quality control were added to matrix containing wells. Samples, standards and quality control wells were run in duplicate, except for 0 ng/mL GLP-2 standard which was run in quadruplicate.
The plate was sealed with a plastic plate seal and incubated at room temperature on a horizontal plate shaker at 450 rpm for 2 hours. Following the first incubation, the plate was washed three times with 1× Wash Buffer, decanting into a waste receptacle and tapping the inverted plate sharply on a stack of paper towels to remove excess wash buffer after each wash.
100 μL of Detection Antibody was added to each well and the plate was sealed with a plastic plate seal and incubated at room temperature on a horizontal plate shaker at 450 rpm for 1 hour. […]
Absorbance was measured on a SynergyMX Plate Reader at 450 nm and 590 nm. Measured values were the difference between 450 nm and 590 nm absorbance values.
Data were analyzed with GraphPad Prism 6.03. […]

insulin = assay: Plasma insulin after acute oral dosing in rats, Rat Insulin ELISA; assay type: in vivo; conditions: Rat Insulin ELISA kit; oral gavage
Protocol: Animals were treated and acutely dosed with various test articles as part of pharmacokinetic rodent experiments according to methods described herein. Unless otherwise stated all dosing was at 2.85 g/kg body weight. All treatment groups except for SEQID-00240 which had n=5 rats, and SEQID-00587 which had n=3, contained n=4 rats.
An Ultra-Sensitive Rat Insulin ELISA Kit was obtained from Crystal Chem, Inc. (Catalog number 90060, Downers Grove, IL). Plates were washed using a BioTek ELx50 microplate strip washer (BioTek, Winooski, VT). Absorbance was read on a Synergy Mx monochromator-based microplate reader (BioTek, Winooski, VT). Data was analyzed using Microsoft Excel version 14.0.7128.5000 (Microsoft Corporation, Redmond, WA) and GraphPad Prism version 6.03 for Windows (GraphPad Software, La Jolla, CA).
The ELISA kit was pre-warmed to room temperature for 30 minutes prior to beginning the assay set up. The standard curve dilutions were prepared in accordance with the manufacturer's instructions for running the assay in Wide Range format. […]
Anti-Insulin Enzyme Conjugate Working Solution was prepared by combining 2 volumes Anti-Insulin Enzyme Conjugate Stock with 1 volume Enzyme Conjugate Diluent, and mixing by pipetting up and down and gently vortexing. […] The absorbance was read on the Synergy Mx plate reader at 450 nm and 630 nm. […]

[1] = Solubility of proteins (lyophilized/reconstituted or ultrafiltered); conditions: produced in E. coli unless otherwise noted
Protocol: Solubility. […] Protein samples were dried by lyophilization on a FreeZone Freeze Dry System (Labconco) using the manufacturer's standard protocol and then resuspended in buffer to the desired concentration. Centrifugal and tangential ultrafiltration were used to selectively remove buffer from the protein sample until the desired concentration was reached. Centrifugal ultrafiltration of protein solutions was performed by centrifugation (10,000×g) of 10 mg of protein in an Amicon centrifugal filter (Millipore) with a molecular weight cutoff of 3 kDa, 10 kDa, or 30 kDa, depending on the protein size, until the desired contrentration was reached. Ultrafiltration of protein solutions was performed on Hydrosart ultrafiltration cassettes (Sartorius Stedim, Bohemia, NY) with a molecular weight cutoff of 3 kDa, 10 kDa, or 30 kDa, depending on the protein size, at a cross flow rate of 12 L/m2/min. For most processes, transmembrane pressure was maintained at 20 psi and performed until the desired contrentration was reached.
The protein concentration of the above samples was measured by one or a combination of the following methods: Coomassie Plus Protein Assay, absorbance at 280 nm (A280), and total amino acid analysis. Coomassie Plus Protein Assays (Pierce) were performed according to the manufacturer's protocol. Absorbance at 280 nm was measured on a Nanodrop 2000 UV-Vis spectrophotometer. Protein concentration was determined using the A280 value and molar extinction coefficient, which was calculated by primary amino acid sequence using ProtParam (Gasteiger, Elisabeth, et al. The proteomics protocols handbook. Humana Press, 2005. 571-607.). Total amino acids were analyzed by HPLC after acid hydrolysis as described in Henderson, J. W., et al. Agilent Technologies (2010).

With “SEQID-00240: nutritive polypeptide naturally produced in Cow, recombinantly expressed in E. coli (DLEGSLEQEKKLRMDLERAKRKLEGDLKLAQESTMDIENDKQQLDEKLKK; listed as Bos taurus)” the “GLP-2 area under curve vs vehicle” value (GLP-2; 0-60 minutes, P<0.005) was “significantly greater in the SEQID-00240 treatment compared to vehicle”, the “GLP-2 area under curve vs vehicle” value (GLP-2; 0-240 minutes, P<0.01) was “significantly greater in the SEQID-00240 treatment compared to vehicle” and the “total GLP-2 concentration vs vehicle” value (GLP-2; 1.54 g/kg, at 15, 30, 60 and 120 minutes following treatment) was “statistically significantly greater than vehicle”. The “total GLP-2 concentration relative to time 0” value (GLP-2; 1.54 g/kg, at 15, 30 and 60 minutes following gavage) was “statistically significant increase in GLP-2 concentration relative to time 0”, the “plasma insulin concentration vs time 0” value (insulin) was “statistically significant increase in plasma insulin at 15 and 30 minutes post gavage compared to time 0” and the “Solubility” value [1] was 163 g/L.
